Test system: SCCA 1 (Serpin b3) expression
Assay: Effect of suppressing SCCA 1 expression (RT-PCR in human normal keratinocytes)
Format: cell-based
Conditions: incubated 24 hours, G3PDH internal standard, compared with control sample
Description: Human normal keratinocytes (manufactured by KURABO INDUSTRIES LTD.) were incubated with culture medium, Epilife (manufactured by KURABO INDUSTRIES LTD.) For medium replacement, the medium was subcultured for three times a week. The human normal keratinocytes were seeded on 3.5 cm dishes. In the phase of 60 to 70% confluent, 200 μM and 1 mM of N-benzenesulfonyl-gamma-aminobutyric were respectively added to the dishes, which were incubated for 24 hours. Then RNAs were extracted with use of Isogen, and SCCA 1 (Serpin b3) expression levels were measured by RT-PCR. Additionally, as a control sample, the same test except no addition of gamma-aminobutyric acid derivatives was conducted. G3PDH was used as internal standard. The primers used for PCR were as follows.

O=C(O)CCCNS(=O)(=O)c1ccccc1 [N-benzenesulfonyl-gamma-aminobutyric acid]
Serpin b3 (SCCA 1) expression level (200 μM added): significantly decreased | Serpin b3 (SCCA 1) expression level (1 mM added): significantly decreased

— patent US8173705B2, “Agent for alleviating wrinkles” (Shiseido Company Ltd., priority 2007, dated 2012)
